# Measurements reported in patent US9387212B2, “Methods for treating Parkinson's disease” (UCB Pharma S.A., priority 2012, dated 2016).
# Assays:
# Assay type in all cases: in vivo, rat
# [1] = test system: unilateral 6-OHDA-lesioned rats; test: Video-based behavioural profile analysis (Ethovision) in drug-naive hemi-parkinsonian rats; details: % of the veh-treated rats; for Distance (quantity of movement): Radiprodil 3 mg/kg po, Tozadenant 30 mg/kg po, LD25 ip, LD/BZ 16/4 mg/kg ip; for Adequate body position / Adequate trajectory (gyration radius) / Contra turns (ability to shift direction) / Ipis turns (ability to shift direction): same doses
# Description: (§1) The specific behavioural profile of unilateral 6-OHDA-lesioned rats was recorded via 8 cameras connected to a video acquisition system. Rats under treatment were placed freely in a small environment (rotometers, 25×22 cm) or in large open-field (50×40 cm) and the behaviour was video-recorded for 55 minutes (total of 3300 sec). The placement in the small (rotometers) or large (open-field) environment may depend on the test. The rats were filmed from below as described in the section which concerns the rotational activity.
# (§2) After the in-live data recordings, the videos are subsequently analyzed by the Ethovision program from (Noldus, version 9.0). The animal and its movements and displacements were defined according to three points (nose, center and tail). The movements, position of the body and, the space occupation, were set-up according to the filter analysis defined with specific criteria and thresholds in the program. Various behavioural parameters were analyzed and only the relevant, i.e. the non-correlated ones, were kept for the final behavioural description.
# (§3) The analysis of the other types of behaviours was done with specific parameters selected in the video analysis program (Ethovision 9.0) in order to describe as best as possible the behaviour observed visually and being able to quantify it. The parameters “Distance”, “Counter Clockwise rotations”, “Clockwise rotations”, “Streched” were extracted from the analysis. Additional parameter, the “gyration radius” is calculated from the raw data obtained by the system. • Distance (=“distance”): the total distance moved by the animal (cm) • Counter clockwise (=“ipsilateral turns”): count of the number of 360° turns of ipsilateral rotations in the same sense than that of the lesion. • Clockwise (=“contralateral turns”): count of the number of 360° turns of contralateral rotations in the opposite sense to that of the lesion. • Stretched: (=“adequate body position”): time spent in a position wherein the rat stands on its four paws without any bent position of the trunk. In the program this is the parameter “body elongation” that is used to discriminate the intensity and frequency of the adequate body position. The threshold is fixed at 70%. • Gyration Radius (=“adequate trajectory”): for a specific time interval, average distance between the animal position and its average position within this specific time interval. This parameter reflect the ability of the rats to use the entire space of the arena and is measured in centimeters. Statistical Analysis
# Specific behavioural analysis: The five behaviours kept for the thorough behavioural analysis (i.e. distance, contra turns, ipsi turns, adequate body position and adequate trajectory) were analyzed with parametric statistic however if variance homogeneity was not respected for the data (Bartlett's test for equal variances) these latter were analyzed with non-parametric statistics (Kruskal-Wallis). In both case, one-way ANOVA was performed to discriminate the effect of the various treatments on each independent behaviours. Significant differences between means were determined by Tukey post hoc test or Dunn's Multiple Comparison test with p<0.05.
# The effects of the oral co-administration of Radiprodil (3 mg/kg, po) with Tozadenant (30 mg/kg, po) on the rat behaviour are compared to the testing of: • 1) these compounds separately • 2) a partially active dose of L-Dopa (25 mg/kg, ip) • 3) a fully active dose of L-Dopa/benserazide (16/4 mg/kg, ip).
# The behavioural profile was analyzed in detail with an automated behavioural analysis system based on video recordings (see methods section for the description). In addition, classical measurements (rotometers and actometers) of the behaviour are also used to assess quantity of movements. […]
# [2] = test system: unilateral 6-OHDA-lesioned rats; test: Chronic add-on treatment to an active dose of L-Dopa/benserazide (10 acquisition sessions; rotometers and open-field); details: plus L-Dopa 14 mg/kg/benserazide 3.5 mg/kg; in comparison to Tozadenant-treated rats (FIG. 16)
# Description: Rotational behaviour was recorded using a home-made computerized system. Rats were fixed in a harness, linked to mechanical sensors that were directly connected to a PC. Each 360° clock-wise or counter clock-wise turn was automatically recorded for up to 240 minutes at the maximum. Throughout the experiments, rats were allocated to individual test cages. Each of 8 clear acrylic chambers (50×40 cm), placed on a level, clear glass bottom, held by a robust frame, could be subdivided into 4 individual square test cages of 25×22 cm. A removable acrylic plate serves as a lid. […] Video sequences were recorded on hard disk for storage and subsequently transferred to PC for analysis and conservation. […]
# Data of the acquisition session under treatment with A2A and/or NR2B antagonist plus L-Dopa/benserazide were analyzed by two-way repeated measures ANOVA with chronic session as within-subjects factor (10 session levels). The reliabilities of the between-mean differences were assessed with planned contrasts using an F statistic. […]
# Ten acquisition sessions (once/day) of L-Dopa (14 mg/kg)/benserazide (3.5 mg/kg) given in co-administration to veh, Tozadenant, Radiprodil or the combination of both compounds increase progressively the level of L-Dopa-induced contralateral rotations when measured in rotometers (FIG. 15). […]
# [3] = test system: hemi-parkinsonian L-Dopa-primed rats; test: Behavioural profile analysis in L-Dopa-primed, fully dyskinetic hemi-parkinsonian rats; details: Radiprodil 3 mg/kg, Tozadenant 30 mg/kg
# Description: as §1, §2
# The analysis of the Abnormal Involuntary movement (“AIMs”) was performed with a specific parameter defined in Ethovision 9.0. The parameter “body elongation” was used to discriminate both the intensity and the frequency of dyskinetic (i.e. dystonic) position of the rat.
# as §3
# Consecutively to that chronic L-Dopa/benzerazide treatment, they show a very high level of contralateral rotations and AIMs at the end of this chronic treatment when tested in the open-field. […] This absence of cross-sensitization on the level of contralateral rotations and AIMs result was entirely unexpected.
structure (smiles),measurement,setting,value
O=C(Nc1ccc2[nH]c(=O)oc2c1)C(=O)N1CCC(Cc2ccc(F)cc2)CC1 [Radiprodil],Distance (quantity of movement),[1]; 0-20′,++ (300-500%)
same,Adequate body position,[1]; 0-20′,++ (300-500%)
same,Adequate trajectory (gyration radius),[1]; 0-20′,++ (300-500%)
same,Contra turns (ability to shift direction),[1]; 0-20′,+ (200-300%)
same,Ipis turns (ability to shift direction),[1]; 0-20′,+ (200-300%)
same,Distance (quantity of movement),[1]; 30-50′,+ (200-300%)
same,Adequate body position,[1]; 30-50′,++ (300-500%)
same,Adequate trajectory (gyration radius),[1]; 30-50′,++ (300-500%)
same,Contra turns (ability to shift direction),[1]; 30-50′,+ (200-300%)
same,Ipis turns (ability to shift direction),[1]; 30-50′,+ (200-300%)
same,"level of severe AIMs in larger open-field, chronic add-on",[2],level of severe AIMs is reduced
same,"Adequate body position, in comparison to the same rats under L-Dopa/benserazide",[3]; arrow gives direction vs LD/BZ,5236% ↑
same,"Adequate trajectory, in comparison to the same rats under L-Dopa/benserazide",[3]; arrow gives direction vs LD/BZ,140% ↑
same,"Contra turns, in comparison to the same rats under L-Dopa/benserazide",[3]; arrow gives direction vs LD/BZ,16% ↓
same,"No AIMs, in comparison to the same rats under L-Dopa/benserazide",[3]; arrow gives direction vs LD/BZ,1035% ↑
same,"Severe AIMs, in comparison to the same rats under L-Dopa/benserazide",[3]; arrow gives direction vs LD/BZ,7% ↓
same,"Distance, in comparison to the same rats under L-Dopa/benserazide","[3]; arrow in cell: increase, decrease or no change vs LD/BZ",69% ↓
